Results on one molecule are retold here after patent US6620810B2, “4-thioxo-4,7-dihydro-thieno[2,3-b]pyridine-5-carboxamides as antiviral agents” (Pharmacia & Upjohn Company, priority 2001, dated 2003).

Holding throughout (type): biochemical
One assay addresses T1, HCMV polymerase (Human cytomegalovirus, UniProt P08546).
T1 construct: made in house; host or cells: recombinant baculovirus-infected SF-9 cells
Kind of assay: HCMV polymerase scintillation proximity assay (Test A, modified version). The note with it: modified SPA assay: compounds diluted in 100% DMSO, 4.5 mM DTT in polymerase buffer. Here is the method: The HCMV polymerase assay is performed using a scintillation proximity assay (SPA) as described in several references, such as N. D. Cook, et al., Pharmaceutical Manufacturing International, pages 49-53 (1992); K. Takeuchi, Laboratory Practice, September issue (1992); U.S. Pat. No. 4,568,649 (1986); which are incorporated by reference herein. Reactions are performed in 96-well plates. The assay is conducted in 100 μl volume with 5.4 mM HEPES (pH 7.5), 11.7 mM KCl, 4.5 mM MgCl2, 0.36 mg/ml BSA, and 90 nM ^3H-dTTP. Assays are run with and without CHAPS, (3-[(3-cholamidopropyl)-dimethylammonio]-1-propane-sulfonate) at a final concentration of 2 mM. HCMV polymerase is diluted in enzyme dilution buffer containing 50% glycerol, 250 mM NaCl, 10 mM HEPES (pH 7.5), 100 μg/ml BSA, and 0.01% sodium azide. […] Plates are incubated 10 min. at 37° C., then equilibrated to room temperature, and counted on a Packard Topcount. Linear regressions are performed and IC50's are calculated using computer software.
A modified version of the above HCMV polymerase assay is performed as described above, but with the following changes: Compounds are diluted in 100% DMSO until final dilution into assay buffer. […] In Table 1, the term “nd” refers to activity data not determined.
(In general: SPA uses beads or plates that emit light when radiolabelled molecules are held near them.)

The next assay addresses HSV polymerase (Human herpesvirus 1, UniProt P04293). The experiment in a line: HSV polymerase assay (Table 1).
The next assay concerns the target VZV polymerase (Varicella-zoster virus, UniProt P09252). The experiment in a line: VZV polymerase assay (Table 1).

T1 sequence (P08546 whole entry): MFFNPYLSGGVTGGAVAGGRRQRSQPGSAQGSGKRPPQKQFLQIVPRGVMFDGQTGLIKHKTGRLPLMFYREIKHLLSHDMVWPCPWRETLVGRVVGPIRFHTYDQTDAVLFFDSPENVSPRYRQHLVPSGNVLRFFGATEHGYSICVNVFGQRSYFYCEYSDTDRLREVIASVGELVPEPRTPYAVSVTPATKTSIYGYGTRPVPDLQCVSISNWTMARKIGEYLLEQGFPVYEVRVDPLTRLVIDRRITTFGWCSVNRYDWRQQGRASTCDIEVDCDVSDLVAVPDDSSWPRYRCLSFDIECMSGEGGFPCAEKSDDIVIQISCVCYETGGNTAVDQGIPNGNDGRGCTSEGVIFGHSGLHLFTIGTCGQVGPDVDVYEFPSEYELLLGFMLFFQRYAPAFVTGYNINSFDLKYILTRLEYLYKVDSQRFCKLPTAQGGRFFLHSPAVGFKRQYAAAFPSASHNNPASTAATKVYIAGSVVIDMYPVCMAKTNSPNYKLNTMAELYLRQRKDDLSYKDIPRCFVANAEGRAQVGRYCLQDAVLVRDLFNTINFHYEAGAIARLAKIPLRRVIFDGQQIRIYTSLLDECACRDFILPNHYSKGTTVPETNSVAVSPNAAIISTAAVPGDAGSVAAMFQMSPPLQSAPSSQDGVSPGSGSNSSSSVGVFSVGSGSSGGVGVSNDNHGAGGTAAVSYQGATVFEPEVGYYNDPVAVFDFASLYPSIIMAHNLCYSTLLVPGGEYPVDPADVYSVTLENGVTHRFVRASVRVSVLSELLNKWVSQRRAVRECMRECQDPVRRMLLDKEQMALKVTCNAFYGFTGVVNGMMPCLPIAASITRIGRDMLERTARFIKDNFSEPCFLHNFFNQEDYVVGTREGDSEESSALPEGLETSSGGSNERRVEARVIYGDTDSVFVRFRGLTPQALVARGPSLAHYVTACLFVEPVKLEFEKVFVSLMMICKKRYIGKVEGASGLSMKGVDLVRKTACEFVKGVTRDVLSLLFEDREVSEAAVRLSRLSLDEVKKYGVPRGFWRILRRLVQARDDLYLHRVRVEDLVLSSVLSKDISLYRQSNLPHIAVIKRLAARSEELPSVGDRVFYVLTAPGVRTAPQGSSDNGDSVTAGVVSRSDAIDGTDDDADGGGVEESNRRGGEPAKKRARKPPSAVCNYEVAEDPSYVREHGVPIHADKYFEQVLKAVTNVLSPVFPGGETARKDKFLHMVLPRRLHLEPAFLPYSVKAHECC
VZV polymerase, sequence (P09252 whole entry): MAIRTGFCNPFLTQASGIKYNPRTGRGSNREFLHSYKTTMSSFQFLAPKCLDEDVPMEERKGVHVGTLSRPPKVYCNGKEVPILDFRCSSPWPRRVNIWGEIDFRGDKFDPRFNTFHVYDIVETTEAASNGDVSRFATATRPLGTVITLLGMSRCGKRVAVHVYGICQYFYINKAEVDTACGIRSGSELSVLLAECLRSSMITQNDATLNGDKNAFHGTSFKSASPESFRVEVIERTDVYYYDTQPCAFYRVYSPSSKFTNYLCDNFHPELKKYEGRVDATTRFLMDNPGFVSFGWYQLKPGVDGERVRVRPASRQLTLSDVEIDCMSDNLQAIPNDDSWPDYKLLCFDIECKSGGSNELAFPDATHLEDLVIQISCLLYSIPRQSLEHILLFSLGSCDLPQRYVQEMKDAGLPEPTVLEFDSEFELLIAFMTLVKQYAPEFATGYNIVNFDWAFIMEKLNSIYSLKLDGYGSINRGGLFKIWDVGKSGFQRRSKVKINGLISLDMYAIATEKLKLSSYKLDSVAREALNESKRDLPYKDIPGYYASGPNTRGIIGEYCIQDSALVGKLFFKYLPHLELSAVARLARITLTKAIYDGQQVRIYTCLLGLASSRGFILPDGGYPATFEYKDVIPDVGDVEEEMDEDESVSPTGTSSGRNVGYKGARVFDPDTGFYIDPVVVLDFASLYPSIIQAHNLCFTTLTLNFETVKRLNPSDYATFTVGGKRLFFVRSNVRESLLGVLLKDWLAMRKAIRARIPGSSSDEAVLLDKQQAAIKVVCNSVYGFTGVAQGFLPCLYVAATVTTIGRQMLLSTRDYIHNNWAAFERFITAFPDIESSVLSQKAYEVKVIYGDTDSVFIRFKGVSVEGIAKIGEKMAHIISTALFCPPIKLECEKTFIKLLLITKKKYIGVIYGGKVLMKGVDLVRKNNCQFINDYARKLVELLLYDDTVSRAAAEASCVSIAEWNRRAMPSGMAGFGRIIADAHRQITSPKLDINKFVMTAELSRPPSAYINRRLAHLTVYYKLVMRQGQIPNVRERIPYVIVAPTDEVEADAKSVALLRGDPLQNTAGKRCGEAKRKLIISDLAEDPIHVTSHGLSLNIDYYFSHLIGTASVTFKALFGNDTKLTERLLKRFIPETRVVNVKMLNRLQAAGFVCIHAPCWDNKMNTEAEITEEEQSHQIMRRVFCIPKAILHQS
HSV polymerase, sequence (P04293 whole entry): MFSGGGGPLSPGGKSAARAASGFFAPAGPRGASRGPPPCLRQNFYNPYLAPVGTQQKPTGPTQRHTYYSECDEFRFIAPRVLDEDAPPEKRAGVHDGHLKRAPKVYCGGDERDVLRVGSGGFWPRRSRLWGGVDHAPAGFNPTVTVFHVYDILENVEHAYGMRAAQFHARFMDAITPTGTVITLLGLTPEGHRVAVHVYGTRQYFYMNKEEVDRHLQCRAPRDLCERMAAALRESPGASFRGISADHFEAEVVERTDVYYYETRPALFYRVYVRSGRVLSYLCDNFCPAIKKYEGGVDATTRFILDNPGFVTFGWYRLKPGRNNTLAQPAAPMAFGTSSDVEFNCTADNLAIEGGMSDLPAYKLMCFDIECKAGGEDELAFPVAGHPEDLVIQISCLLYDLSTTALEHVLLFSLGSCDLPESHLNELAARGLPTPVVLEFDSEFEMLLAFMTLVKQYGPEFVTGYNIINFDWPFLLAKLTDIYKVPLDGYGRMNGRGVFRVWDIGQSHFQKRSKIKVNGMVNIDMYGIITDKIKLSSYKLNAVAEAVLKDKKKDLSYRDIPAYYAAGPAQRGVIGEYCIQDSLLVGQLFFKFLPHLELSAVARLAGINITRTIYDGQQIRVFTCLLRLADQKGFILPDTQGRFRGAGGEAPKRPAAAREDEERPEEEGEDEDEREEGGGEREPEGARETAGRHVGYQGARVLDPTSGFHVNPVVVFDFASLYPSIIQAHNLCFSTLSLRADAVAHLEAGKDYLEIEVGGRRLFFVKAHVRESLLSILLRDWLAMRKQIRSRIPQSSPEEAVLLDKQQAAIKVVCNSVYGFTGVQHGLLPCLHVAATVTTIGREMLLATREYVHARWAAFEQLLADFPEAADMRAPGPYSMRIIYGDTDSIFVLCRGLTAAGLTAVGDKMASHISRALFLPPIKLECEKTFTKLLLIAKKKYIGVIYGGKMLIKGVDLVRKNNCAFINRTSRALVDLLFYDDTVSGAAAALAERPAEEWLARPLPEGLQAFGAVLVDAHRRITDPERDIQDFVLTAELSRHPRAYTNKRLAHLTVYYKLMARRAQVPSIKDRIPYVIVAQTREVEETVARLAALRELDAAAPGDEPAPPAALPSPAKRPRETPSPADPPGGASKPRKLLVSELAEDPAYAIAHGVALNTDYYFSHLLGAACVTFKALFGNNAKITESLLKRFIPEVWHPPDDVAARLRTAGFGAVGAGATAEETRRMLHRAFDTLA

`Cn1cc(C(=O)NCc2ccc(Cl)cc2)c(=S)c2cc(CN3CCOCC3)sc21` [Example 1, N-(4-chlorobenzyl)-7-methyl-2-(4-morpholinylmethyl)-4-thioxo-4,7-dihydrothieno[2,3-b]pyridine-5-carboxamide]: the results for the 50% inhibitory concentration (IC50) against HCMV polymerase, on HSV polymerase and at VZV polymerase were 630 nM, 160 nM and 80 nM, respectively.

Broadly, the IC50 is the concentration that gives 50% inhibition.
